According to patent publication US10335423B2, “Inhibition of HIV infection through chemoprophylaxis” (THE UNITED STATES OF AMERICA, as represented by the …, priority 2006, dated 2019):
Where a name gives a salt, the structure may show the parent alone. Read-outs that look alike come from different tables or passages of the source.

Experiments:
[1] = in vivo; conditions: rhesus monkey
Description: A dose of 22 mg/kg of tenofovir disoproxil fumarate (TDF) is given orally and 20 mg/kg of emtricitabine (FTC) given orally or subcutaneously to one group of adult male rhesus macaques.

[2] = human, in vivo, cited from earlier work
[3] = test system: simian immunodeficiency virus (SIV); conditions: monkey models challenged with SIV; cited from earlier work
[4] = test system: SHIV; conditions: oral daily dosing, dose equivalent to that used in humans; cited from earlier work
[5] = test system: SHIVSF162P3; test: SHIV plasma viral load (real-time PCR) in breakthrough infections; assay type: in vivo, rhesus macaques
Description: Plasma RNA is quantified using a real-time PCR assay as previously described.^5 This assay has a sensitivity of detection of 50 RNA copies/ml or 10 copies of a pVp1 plasmid carrying the SIVmac239 RT gene. HIV-1 RNA is extracted from 1 mL of plasma using the NucliSens extraction method (bioMerieux). A known amount of virus particles (3×10^5) from an HIV-1 CM240 virus stock is added to each sample prior to extraction to control for the efficiency of extraction. Reverse transcription is performed using 10 microliters (μl) of extracted RNA and the 2-step TaqMan Gold reverse-transcriptase (RT)—PCR kit (Applied Biosystems) according to the manufacturer's instructions. PCR reactions are performed as described using an ABI 7000 […] (Applied Biosystems). Virus loads are calculated from a standard curve generated with known amount of virus particles. All primers and probes used for SIVmac239 and HIV-1 CM240 have been reported elsewhere.^5 HIV-1 CM240 is obtained from the National Institutes of Health (NIH) AIDS Research and Reference Reagent Program.
Since the dynamics of breakthrough infections that occur during inventive prophylaxis and drug resistance emergence are unknown, the 6 infected animals from Groups 1 and 2 are followed under continued drug treatment. FIG. 3 compares the virus load kinetics in the 6 breakthrough infections with those in 12 untreated macaques that had sufficient follow-up samples. The mean peak viremia in the 6 treated macaques was 4.9±0.5 log10 RNA copies/ml, 2.0 log10 lower than in untreated controls (6.9±0.3 log10 RNA). […] In contrast, all 12 untreated macaques had detectable virus loads during a median follow-up period of 7 weeks (range=5-36 weeks). The arrow in FIG. 4 denotes the first detectable antibody response. Grey circles indicate detectable M184V/I mutation; wild type sequences are shown in black full circles. Open circles are provided for data points not genotyped.

[6] = test system: SHIVSF162P3; test: Repeated weekly rectal SHIV162p3 exposures under once daily prophylaxis (survival curves); assay type: in vivo, rhesus macaques
Description: A chimeric envelope SHIVSF162P3 isolate is used to inoculate the macaques. SHIVSF162P3 is a construct that contains the tat, rev, and env coding regions of HIV-1SF162 in a background of SIVmac239. This isolate was obtained from the National Institutes of Health (NIH) AIDS Research and Reference Reagent Program.^7,8 Virus exposures are performed 2 hours after drug treatment, and involved non-traumatic inoculation of 1 mL of SHIVSF162P3 (10 TCID50 or […]) into the rectal vault via a sterile gastric feeding tube.^9 Anesthetized macaques remained recumbent for at least 15 min after each intra-rectal inoculation.
The exact log-rank test is used for a discrete-time survival analysis of the treatment and control groups, with use of the number of inoculations as the time variable. The Cox proportional hazards model is used to estimate the relative hazard ratio (HR). Percent protection is calculated from the HR value using the formula: (1-1/HR)×100. All statistical analyses for calculation of the efficacy of the different interventions are performed using SAS software (version 9.1; SAS Institute) and StatXact software (version 6.3; Cytel).
Macaques are exposed rectally once weekly for up to 14 weeks to SHIV162p3 which contains an R5 tropic HIV-1 envelope that resembles naturally transmitted viruses. The SHIV162p3 challenge dose is 10 TCID50 or 7.6×10^5 RNA copies which is similar to HIV-1 RNA levels in semen during acute infection in humans.^11 Virus exposures are terminated when a macaque became infected. […] Three prophylactic drug treatments of increasing drug potency are each given once daily to a group of six macaques. Animals in Group 1 were treated subcutaneously with 20 mg/kg of FTC alone. Animals in Group 2 received orally a combination of FTC (20 mg/kg) and TDF (22 mg/kg). […] The rate of infection in each group is compared with that seen in 18 untreated control macaques (9 real time and 9 historical controls).
All treated macaques received the corresponding drugs 7 to 9 days prior to the first virus inoculation to achieve steady-state plasma levels. Treated animals that remained uninfected during the 14 challenges received 28 days of post-exposure prophylaxis after the last challenge. Protection was defined as absence of persistent viremia and seroconversion.
Data with TDF (20 mg/kg) is also provided for comparison.

CC(C)OC(=O)OCOP(=O)(CO[C@H](C)Cn1cnc2c(N)ncnc21)OCOC(=O)OC(C)C [TDF, tenofovir disoproxil fumarate]
area-under the plasma concentration-time curve over a 24 h interval (AUC) ([1]; male, po, 22 mg/kg): 4490 ng·h/mL
AUC ([2]; 300 mg): 5020 ng·h/mL

C[C@H](Cn1cnc2c(N)ncnc21)OCP(=O)(O)O [tenofovir]
prophylactic activity [3]: Prophylactic activity has been demonstrated
protection against rectal SHIV transmission [4]: partially protective

Nc1nc(=O)n([C@@H]2CS[C@H](CO)O2)cc1F [FTC, emtricitabine]
AUC ([1]; male, 20 mg/kg): 11000 ng·h/mL
plasma FTC levels after subcutaneous administration [1]: comparable to those achieved during oral administration
time after the peak in viremia to undetectable virus loads ([5]; animal AG-07): 7 weeks
time after the peak in viremia to undetectable virus loads ([5]; animal AG-80): 3 weeks
time after the peak in viremia to undetectable virus loads ([5]; animal AH-04): 4 weeks
viremia during follow-up ([5]; for up to 20 weeks, animals AG-80, AH-04, AG-07, AG-81): consistently low or undetectable
exposure with first detectable viral RNA ([6]; animal AG-07): 13
exposure with first detectable viral RNA ([6]; animal AG-46): 10
exposure with first detectable viral RNA ([6]; animal AG-80): 5
exposure with first detectable viral RNA ([6]; animal AH-04): 12
Cox proportional hazard ratio [HR] (fold reduction of infection compared to controls) ([6]; compared to 18 untreated controls): 3.8
infection / survival analysis compared to untreated controls ([6]; compared to untreated controls): statistically significant difference
macaques that became infected ([6]; of 6 macaques per group, once daily treatment, up to 14 rectal exposures): 4
macaques remaining uninfected / protected after 14 exposures ([6]; of 6 macaques per group, once daily treatment, weekly rectal SHIV162p3): 2
protection compared with TDF alone ([6]; versus 4 animals previously receiving TDF, difference not statistically significant (p=0.5)): higher than that previously seen in 4 animals receiving TDF
AUC ([2]; po, 200 mg): 10000 ± 3120 ng·h/mL
